Data: the supplement of paper PMC10307832

What was measured:
Assay in all cases: relative viability (nuclei count vs DMSO), 5 days (fraction); higher = more cells survive
Docetaxel = compound: CC(=O)O[C@@]12CO[C@@H]1C[C@H](O)[C@@]1(C)C(=O)[C@H](O)C3=C(C)[C@@H](OC(=O)[C@H](O)[C@@H](NC(=O)OC(C)(C)C)c4ccccc4)C[C@@](O)([C@@H](OC(=O)c4ccccc4)[C@H]21)C3(C)C [Docetaxel]
Method in brief: (§1)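 For viability, nuclei in each treated well were divided by nuclei in vehicle wells and the median across plates was taken. Lung cancer cell lines in 1536-well plates were pinned with five library-drug doses (not always all listed) spaced by √10, cultured 5 days without medium change, and imaged at 4× after Hoechst staining, with plates passing only at control CV below 25% and at least one doubling.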

Tivozanib = compound: COc1cc2nccc(Oc3ccc(NC(=O)Nc4cc(C)on4)c(Cl)c3)c2cc1OC [Tivozanib]
Method in brief: as §1

[1] = compound: Cc1cnc(-c2cnc(NCCNc3ccc(C#N)cn3)nc2-c2ccc(Cl)cc2Cl)[nH]1
Method in brief: as §1

JQ1 = compound: Cc1sc2c(c1C)C(c1ccc(Cl)cc1)=N[C@@H](CC(=O)OC(C)(C)C)c1nnc(C)n1-2 [JQ1]
Method in brief: as §1

Cytarabine = compound: Nc1ccn([C@@H]2O[C@H](CO)[C@@H](O)[C@@H]2O)c(=O)n1 [Cytarabine]
Method in brief: as §1

CPI-613 = compound: O=C(O)CCCCC(CCSCc1ccccc1)SCc1ccccc1 [CPI-613]
Method in brief: as §1

Pimozide = compound: O=c1[nH]c2ccccc2n1C1CCN(CCCC(c2ccc(F)cc2)c2ccc(F)cc2)CC1 [Pimozide]
Method in brief: as §1

Q: Which results are given for NCI-H2126?
A: relative viability (Docetaxel; 0.0002 µM): 1.02; relative viability (Docetaxel; 0.000632 µM): 0.886; relative viability (Docetaxel; 0.002 µM): 0.624; relative viability (Docetaxel; 0.006325 µM): 0.369; relative viability (Docetaxel; 0.02 µM): 0.227; relative viability (Tivozanib; 0.005 µM): 0.968; relative viability (Tivozanib; 0.01581 µM): 0.961; relative viability (Tivozanib; 0.05 µM): 1.04; relative viability (Tivozanib; 0.1581 µM): 0.713; relative viability (Tivozanib; 0.5 µM): 0.98; relative viability ([1]; 0.08 µM): 1.03; relative viability ([1]; 0.253 µM): 0.927; relative viability ([1]; 0.8 µM): 0.952; relative viability ([1]; 2.53 µM): 1.04; relative viability (JQ1; 0.04 µM): 1.01; relative viability (JQ1; 0.1265 µM): 0.928; relative viability (JQ1; 0.4 µM): 0.858; relative viability (JQ1; 1.265 µM): 0.697; relative viability (JQ1; 4 µM): 0.648; relative viability (Cytarabine; 0.005 µM): 0.887; relative viability (Cytarabine; 0.01581 µM): 0.9; relative viability (Cytarabine; 0.05 µM): 0.716; relative viability (Cytarabine; 0.1581 µM): 0.714; relative viability (Cytarabine; 0.5 µM): 0.618; relative viability (CPI-613; 5 µM): 0.98; relative viability (CPI-613; 15.81 µM): 0.991; relative viability (CPI-613; 50 µM): 1.05; relative viability (CPI-613; 158.11 µM): 0.563; relative viability (CPI-613; 500 µM): 0.592; relative viability (Pimozide; 0.08 µM): 0.978; relative viability (Pimozide; 0.253 µM): 0.948; relative viability (Pimozide; 0.8 µM): 1.02; relative viability (Pimozide; 2.53 µM): 0.966; relative viability (Pimozide; 8 µM): 0.986

Q: With Calu-6 as the cell line, how does the relative viability (Docetaxel; 0.0002 µM) read?
A: 1.01

Q: And the relative viability (Docetaxel; 0.000632 µM)?
A: 0.892

Q: What about the relative viability (Docetaxel; 0.002 µM) of the same cell line?
A: 0.28

Q: And the relative viability (Docetaxel; 0.006325 µM)?
A: 0.157

Q: What about the relative viability (Docetaxel; 0.02 µM) of the same cell line?
A: 0.109

Q: And the relative viability (Tivozanib; 0.005 µM)?
A: 0.955

Q: What about the relative viability (Tivozanib; 0.01581 µM) of the same cell line?
A: 1.02

Q: What about the relative viability (Tivozanib; 0.05 µM) of the same cell line?
A: 1.04

Q: What about the relative viability (Tivozanib; 0.1581 µM) of the same cell line?
A: 1.08

Q: What about the relative viability (Tivozanib; 0.5 µM) of the same cell line?
A: 0.943

Q: What about the relative viability ([1]; 0.08 µM) of the same cell line?
A: 1

Q: And the relative viability ([1]; 0.253 µM)?
A: 0.951

Q: And the relative viability ([1]; 0.8 µM)?
A: 0.969

Q: And the relative viability ([1]; 2.53 µM)?
A: 0.908

Q: What about the relative viability (JQ1; 0.04 µM) of the same cell line?
A: 0.951

Q: And the relative viability (JQ1; 0.1265 µM)?
A: 0.804

Q: What about the relative viability (JQ1; 0.4 µM) of the same cell line?
A: 0.933

Q: What about the relative viability (JQ1; 1.265 µM) of the same cell line?
A: 0.593

Q: And the relative viability (JQ1; 4 µM)?
A: 0.425

Q: And the relative viability (Cytarabine; 0.005 µM)?
A: 0.93

Q: What about the relative viability (Cytarabine; 0.01581 µM) of the same cell line?
A: 0.865

Q: What about the relative viability (Cytarabine; 0.05 µM) of the same cell line?
A: 0.714

Q: And the relative viability (Cytarabine; 0.1581 µM)?
A: 0.462

Q: What about the relative viability (Cytarabine; 0.5 µM) of the same cell line?
A: 0.313

Q: And the relative viability (CPI-613; 5 µM)?
A: 0.978

Q: And the relative viability (CPI-613; 15.81 µM)?
A: 0.999

Q: What about the relative viability (CPI-613; 50 µM) of the same cell line?
A: 0.913

Q: And the relative viability (CPI-613; 158.11 µM)?
A: 0.722

Q: And the relative viability (CPI-613; 500 µM)?
A: 0.545

Q: And the relative viability (Pimozide; 0.08 µM)?
A: 1.05

Q: And the relative viability (Pimozide; 0.253 µM)?
A: 1.01

Q: What about the relative viability (Pimozide; 0.8 µM) of the same cell line?
A: 0.974

Q: And the relative viability (Pimozide; 2.53 µM)?
A: 0.991

Q: And the relative viability (Pimozide; 8 µM)?
A: 0.897

Q: NCI-H1666 was tested. Which relative viability (Docetaxel; 0.0002 µM) did it give?
A: 0.86

Q: And the relative viability (Docetaxel; 0.000632 µM)?
A: 0.876

Q: And the relative viability (Docetaxel; 0.002 µM)?
A: 0.616

Q: What about the relative viability (Docetaxel; 0.006325 µM) of the same cell line?
A: 0.6

Q: And the relative viability (Docetaxel; 0.02 µM)?
A: 0.421

Q: And the relative viability (Tivozanib; 0.005 µM)?
A: 0.965

Q: What about the relative viability (Tivozanib; 0.01581 µM) of the same cell line?
A: 0.965

Q: What about the relative viability (Tivozanib; 0.05 µM) of the same cell line?
A: 1.02

Q: What about the relative viability (Tivozanib; 0.1581 µM) of the same cell line?
A: 0.99

Q: What about the relative viability (Tivozanib; 0.5 µM) of the same cell line?
A: 1.02

Q: And the relative viability ([1]; 0.08 µM)?
A: 0.983

Q: And the relative viability ([1]; 0.253 µM)?
A: 0.929

Q: What about the relative viability ([1]; 0.8 µM) of the same cell line?
A: 1.06

Q: And the relative viability ([1]; 2.53 µM)?
A: 0.998

Q: What about the relative viability (JQ1; 0.04 µM) of the same cell line?
A: 0.94

Q: And the relative viability (JQ1; 0.1265 µM)?
A: 0.965

Q: And the relative viability (JQ1; 0.4 µM)?
A: 0.848

Q: And the relative viability (JQ1; 1.265 µM)?
A: 0.711

Q: What about the relative viability (JQ1; 4 µM) of the same cell line?
A: 0.64

Q: And the relative viability (Cytarabine; 0.005 µM)?
A: 1

Q: And the relative viability (Cytarabine; 0.01581 µM)?
A: 0.849

Q: And the relative viability (Cytarabine; 0.05 µM)?
A: 0.803

Q: What about the relative viability (Cytarabine; 0.1581 µM) of the same cell line?
A: 0.56

Q: And the relative viability (Cytarabine; 0.5 µM)?
A: 0.573

Q: And the relative viability (CPI-613; 5 µM)?
A: 0.964

Q: And the relative viability (CPI-613; 15.81 µM)?
A: 0.945

Q: And the relative viability (CPI-613; 50 µM)?
A: 0.837

Q: And the relative viability (CPI-613; 158.11 µM)?
A: 0.696

Q: What about the relative viability (CPI-613; 500 µM) of the same cell line?
A: 0.323

Q: What about the relative viability (Pimozide; 0.08 µM) of the same cell line?
A: 0.953

Q: What about the relative viability (Pimozide; 0.253 µM) of the same cell line?
A: 0.983

Q: And the relative viability (Pimozide; 0.8 µM)?
A: 0.934

Q: And the relative viability (Pimozide; 2.53 µM)?
A: 0.909

Q: What about the relative viability (Pimozide; 8 µM) of the same cell line?
A: 0.909

Q: How did the relative viability (Docetaxel; 0.0002 µM) turn out when H3255 was run?
A: 0.899

Q: What about the relative viability (Docetaxel; 0.000632 µM) of the same cell line?
A: 0.978

Q: And the relative viability (Docetaxel; 0.002 µM)?
A: 0.657

Q: And the relative viability (Docetaxel; 0.006325 µM)?
A: 0.336

Q: And the relative viability (Docetaxel; 0.02 µM)?
A: 0.3

Q: And the relative viability (Tivozanib; 0.005 µM)?
A: 0.922

Q: And the relative viability (Tivozanib; 0.01581 µM)?
A: 0.985

Q: And the relative viability (Tivozanib; 0.05 µM)?
A: 0.882

Q: And the relative viability (Tivozanib; 0.1581 µM)?
A: 0.828

Q: And the relative viability (Tivozanib; 0.5 µM)?
A: 0.926

Q: What about the relative viability ([1]; 0.08 µM) of the same cell line?
A: 1.02

Q: And the relative viability ([1]; 0.253 µM)?
A: 0.887

Q: And the relative viability ([1]; 0.8 µM)?
A: 0.994

Q: What about the relative viability ([1]; 2.53 µM) of the same cell line?
A: 0.999

Q: What about the relative viability (JQ1; 0.04 µM) of the same cell line?
A: 0.874

Q: And the relative viability (JQ1; 0.1265 µM)?
A: 0.665

Q: What about the relative viability (JQ1; 0.4 µM) of the same cell line?
A: 0.912

Q: What about the relative viability (JQ1; 1.265 µM) of the same cell line?
A: 0.456

Q: What about the relative viability (JQ1; 4 µM) of the same cell line?
A: 0.336

Q: And the relative viability (Cytarabine; 0.005 µM)?
A: 0.96

Q: And the relative viability (Cytarabine; 0.01581 µM)?
A: 0.922

Q: What about the relative viability (Cytarabine; 0.05 µM) of the same cell line?
A: 0.763

Q: What about the relative viability (Cytarabine; 0.1581 µM) of the same cell line?
A: 0.695

Q: And the relative viability (Cytarabine; 0.5 µM)?
A: 0.591

Q: And the relative viability (CPI-613; 5 µM)?
A: 0.94

Q: What about the relative viability (CPI-613; 15.81 µM) of the same cell line?
A: 0.803

Q: And the relative viability (CPI-613; 50 µM)?
A: 0.984

Q: And the relative viability (CPI-613; 158.11 µM)?
A: 0.92

Q: What about the relative viability (CPI-613; 500 µM) of the same cell line?
A: 0.888

Q: And the relative viability (Pimozide; 0.253 µM)?
A: 0.913

Q: What about the relative viability (Pimozide; 0.8 µM) of the same cell line?
A: 0.907

Q: What about the relative viability (Pimozide; 2.53 µM) of the same cell line?
A: 0.907

Q: And the relative viability (Pimozide; 8 µM)?
A: 0.948
